Entries after “also recorded” stand apart in the source; their conditions may differ.
What was measured:
[1] = test system: dendritic cells from C57BL/6 mice lacking the Fc receptor γ chain; experiment: Dendritic cell TNF-α production, Fc receptor γ chain deficient mice; type: cell-based, mouse; conditions: Table 2, Fc receptor γ chain deficient dendritic cells; 48 hours
Procedure: (§1) Dendritic cells were generated from the bone marrow of C57BL/6 wildtype mice and from C57BL/6 mice lacking the Fc receptor γ chain in by in vitro culture of the bone marrow cells with GM-CSF and IL-4 for 6 days. On day 6, the CD11c positive dendritic cells were isolated using magnetic beads. The stimulatory ODN 1826 (3 μg/ml), that specifically activates through TLR9, lipopolysaccharide (LPS, 10 μg/ml), the anti-chromatin antibodies PL2-3 (50 μg/ml; IgG2a) and PL2-8 (50 μg/ml; IgG2b), two different antibody/protein ratios of α-TNP/TNP-BSA immune complexes (50 μg/ml), or the culture medium only (media), was then added to the dendritic cell cultures. After 48 hours, levels of TNF-α in the culture supernatants was measured by ELISA (results shown as pg/ml; lower level of sensitivity of assay is 50 pg/ml). A representative experiment of 2 similar experiments is shown.

RF+ MyD88−/− B cells = experiment: Proliferation of RF+ MyD88-/- B cells; type: cell-based, mouse; conditions: FIG. 4C
Procedure: To investigate the potential role of TLRs in mediating RF+ B cell responses to autoantibody/autoantigen IC, we crossed the AM14 transgenes onto a MyD88−/− background (Adachi, et al., Immunity 9, 143-150 (1998)). B cells from RF− MyD88+/+ (wildtype), RF+ MyD88+/+, and RF+ MyD88−/− offspring, identified by a combination of PCR and FACS analysis (FIGS. 4A-4B), were assessed for their ability to respond to anti-IgM, CpG ODN, and LPS, as well as to a panel of anti-nucleosome mAbs and autoimmune sera.
Mice. […] Complement receptor genotype was determined by flow cytometry using the FITC-conjugated 7G6 antibody (Pharmingen, San Diego, Calif.). MyD88 genotype was determined by PCR using the primers: MyD88F (5′-TGGCATGCCTCCATCATAGTTAACC-3′) [SEQ ID NO: 1], MyD88R (5′-GTCAGAAACAACCACCACCATGC-3′) [SEQ ID NO: 2], and neoR (5′-ATCGCCTTCTATCGCCTTCTTGACG-3′) [SEQ ID NO: 3] […]
Cell culture and reagents. […] Proliferation was assessed by ^3[H]-thymidine incorporation during the final 16 hours of culture. […] The percentage of the anti-IgM response was calculated according to the formula: [(cpm experimental condition−cpm CD40L alone)/(cpm anti-IgM−cpm CD40L alone)×100].

[2] = test system: CD11c positive dendritic cells from bone marrow of C57BL/6 mice; experiment: Dendritic cell activation (TNF-α and IL-12 ELISA, CD86 flow cytometry); type: cell-based, mouse; conditions: for TNF-α in culture supernatants (ELISA): 48 hours
Procedure: Dendritic cells were generated from the bone marrow of C57BL/6 mice by in vitro culture with GM-CSF and IL-4 for 6 days. On day 6, the CD11c positive dendritic cells were isolated using magnetic beads (Miltenyi Biotec) and either pre-incubated, or not pre-incubated, for 30 minutes with ODN 2088, an inhibitory oligodeoxynucleotide that specifically blocks signaling through TLR9. The stimulatory ODN 1826 (CpG, 3 μg/ml), that specifically activates through TLR9, or lipopolysaccharide (LPS, 10 μg/ml), that activates through TLR4, or culture medium only (media), was then added to the cultures. After 48 hours, levels of TNF-α (8A) and IL-12 (8B) in the culture supernatants were measured by ELISA (results shown as OD units determined by absorption at 405 nm). After removal of the supernatants, cells were collected and analyzed by flow cytometry for expression of the co-stimulatory molecule CD86 (8c). Unstimulated refers to the level of expression of CD86 in the presence of media alone, whereas stimulated refers to the level of expression of CD86 in the presence of the stimulus (ODN 1826 or LPS).
Dendritic cells were generated from the bone marrow of C57BL/6 mice by in vitro culture with GM-CSF and IL-4 for 6 days. On day 6, the CD11c positive dendritic cells were isolated using magnetic beads (Miltenyi Biotec). The dendritic cells were then either pre-incubated, or not pre-incubated, for 30 minutes with ODN 2088 at 12 μg/ml. The stimulatory ODN 1826 (3 μg/ml), that specifically activates through TLR9, lipopolysaccharide (LPS, 10 μg/ml), that activates through TLR4, the anti-chromatin antibody PL2-3 (50 μg/ml), three different antibody/protein ratios of α-TNP/TNP-BSA immune complexes (50 μg/ml), or the culture medium only (media), was then added to the cultures. After 48 hours, levels of TNF-α in the culture supernatants was measured by ELISA (results shown as pg/ml; lower level of sensitivity of assay is 50 pg/ml). A representative experiment of 3 similar experiments is shown.
as §1

AM14 RF+ B cells = experiment: RF+ B cell proliferation (3[H]-thymidine incorporation); type: cell-based, mouse; conditions: for Inhibition of RF+ B cell response to mAb PL2-3 / chromatin-containing IC: FIGS. 5A-5C
Procedure: Cell culture and reagents. Spleen cell preparations were T-depleted and cultured with the appropriate ligands for 40-48 hrs. In some experiments, B cells were preincubated with CD40L as described (Rifkin, et al., J. Immunol. 165, 1626-1633 (2000)). Proliferation was assessed by ^3[H]-thymidine incorporation during the final 16 hours of culture. Data are presented as the mean percentage of the anti-IgM response from triplicate cultures. The percentage of the anti-IgM response was calculated according to the formula: [(cpm experimental condition−cpm CD40L alone)/(cpm anti-IgM−cpm CD40L alone)×100].
In some experiments, DNase I (type IV) (Sigma, St. Louis, Mo.), chloroquine (Sigma), concanamycin B, bafilomycin A (Sigma), or 12 μg/ml of the inhibitory CpG S-ODN 2008 (Lenart, et al., Antisense Nucleic Acid Drug Dev. 4, 247-256 (2001)) (Oligo's Etc.) were added to the cultures 15-30 min-2 hr before the addition of the ligands.

[3] = in vivo; cited from earlier work
[4] = Table 1, column 2088: pre-incubated 30 minutes with ODN 2088 at 12 μg/ml
[5] = Table 1, column None: no ODN 2088 pre-incubation, lower level of sensitivity 50 pg/ml
[6] = Table 2, wildtype C57BL/6 dendritic cells

Q: With lipopolysaccharide [LPS] as the compound, how does the “TNF-α in culture supernatants (ELISA)” value [1] read?
A: The value was 3411 pg/mL.

Q: What about the “Proliferative response of B cells from RF+ MyD88-deficient mice” value (RF+ MyD88−/− B cells) of the same compound?
A: Its value is “responded only weakly”.

Q: What about the “TNF-α in culture supernatants (ELISA)” value [2, 4] of the same compound?
A: Its value is 2393 pg/mL.

Q: What about the “TNF-α in culture supernatants (ELISA)” value [2, 5] of the same compound?
A: Its value is 2514 pg/mL.

Q: And the “TNF-α in culture supernatants (ELISA)” value [2, 6]?
A: Its value is 7056 pg/mL.

Q: Which “Inhibition of RF+ B cell response to mAb PL2-3 / chromatin-containing IC” value (AM14 RF+ B cells) does the source give for C/C=C/[C@H]1O[C@@](O)([C@@H](C)[C@H](O)[C@H](C)[C@H]2OC(=O)/C(OC)=C/C(C)=C/[C@@H](C)[C@@H](O)[C@@H](CC)[C@@H](O)[C@H](C)C/C(C)=C/C=C/[C@@H]2OC)C[C@@H](O[C@H]2C[C@@H](O)[C@H](OC(N)=O)[C@@H](C)O2)[C@@H]1C [concanamycin A] here?
A: The value was “completely blocked”.

Q: For DNase, which “Effect of DNase on RF+ B cell proliferative response to anti-nucleosome mAb PL2-3 or autoimmune serum” value (AM14 RF+ B cells; DNase added to assay medium (FIG. 1)) is on record?
A: Its value is “dramatically reduced”.

Q: And the “Effect of DNase on responses to F(ab')2 anti-IgM and LPS” value (AM14 RF+ B cells; FIG. 1, nonspecific toxicity control)?
A: Its value is “unaffected”.

Q: Which “Inhibition of RF+ B cell response to mAb PL2-3 / chromatin-containing IC” value (AM14 RF+ B cells) does the source give for C/C=C/[C@H]1O[C@@](O)([C@@H](C)[C@H](O)[C@H](C)[C@H]2OC(=O)/C(OC)=C/C(C)=C/[C@@H](C)[C@@H](O)[C@@H](C)[C@@H](O)[C@H](C)C/C(C)=C/C=C/[C@@H]2OC)C[C@@H](O[C@H]2C[C@@H](O)[C@H](OC(N)=O)[C@@H](C)O2)[C@@H]1C [concanamycin B] here?
A: The value was “inhibited”.

Q: Which “TNF-α in culture supernatants (ELISA)” value [1] does the source give for ODN 1826 here?
A: Its value is 2373 pg/mL.

Q: What about the “Proliferative response of B cells from RF+ MyD88-deficient mice” value (RF+ MyD88−/− B cells) of the same compound?
A: The value was “unable to respond”.

Q: And the “Cytokine production by dendritic cells” value ([2]; 3 μg/ml, 48 hours (FIGS. 8A, 8B))?
A: Its value is “induces TNF-α and IL-12 production”.

Q: And the “Co-stimulatory molecule (CD86) expression on dendritic cells” value ([2]; FIG. 8C)?
A: Its value is “induces upregulation of co-stimulatory molecules”.

Q: What about the “TNF-α in culture supernatants (ELISA)” value [2, 4] of the same compound?
A: The value was less than 50 pg/mL.

Q: What about the “TNF-α in culture supernatants (ELISA)” value [2, 5] of the same compound?
A: Its value is 2347 pg/mL.

Q: And the “TNF-α in culture supernatants (ELISA)” value [2, 6]?
A: Its value is 7899 pg/mL.

Q: Which “Inhibition of RF+ B cell response to mAb PL2-3 / chromatin-containing IC” value (AM14 RF+ B cells) does the source give for CO/C1=C\C(C)=C\[C@@H](C)[C@@H](O)[C@@H](C)C/C(C)=C/C=C/[C@H](OC)[C@@H]([C@@H](C)[C@@H](O)[C@H](C)[C@@]2(O)C[C@@H](O)[C@H](C)[C@@H](C(C)C)O2)OC1=O [bafilomycin A] here?
A: The value was “inhibited”.

Q: Which “Treatment of autoimmune diseases including rheumatoid arthritis and SLE” value [3] does the source give for CCN(CC)CCCC(C)Nc1ccnc2cc(Cl)ccc12 (stereo not drawn) [chloroquine] here?
A: The value was “effective treatment”.

Q: What about the “Inhibition of RF+ B cell response to mAb PL2-3 / chromatin-containing IC” value (AM14 RF+ B cells) of the same compound?
A: Its value is “completely blocked; also recorded: inhibited”.

Q: And the “Inhibition of proliferative response to stimulatory CpG S-ODN 1826” value (AM14 RF+ B cells; TLR9 ligand)?
A: Its value is “inhibited”.

Q: Which “Inhibition of RF+ B cell response to mAb PL2-3 / chromatin-containing IC” value (AM14 RF+ B cells) does the source give for Cl.N [ammonium chloride] here?
A: The value was “inhibited”.

— patent publication US7709451B2, “Method and composition for treating immune complex associated disorders” (Trustees of Boston University, priority 1997, dated 2010)
